These results are taken from ChEMBL document CHEMBL4118166, “Design, synthesis and evaluation of potent and selective inhibitors of mono-(ADP-ribosyl)transferases PARP10 and PARP14” (Bioorg Med Chem Lett, 2018).

Series [1] has as its target T1, Protein mono-ADP-ribosyltransferase PARP10 (Homo sapiens, UniProt Q53GL7).
T1 sequence (Q53GL7 whole entry): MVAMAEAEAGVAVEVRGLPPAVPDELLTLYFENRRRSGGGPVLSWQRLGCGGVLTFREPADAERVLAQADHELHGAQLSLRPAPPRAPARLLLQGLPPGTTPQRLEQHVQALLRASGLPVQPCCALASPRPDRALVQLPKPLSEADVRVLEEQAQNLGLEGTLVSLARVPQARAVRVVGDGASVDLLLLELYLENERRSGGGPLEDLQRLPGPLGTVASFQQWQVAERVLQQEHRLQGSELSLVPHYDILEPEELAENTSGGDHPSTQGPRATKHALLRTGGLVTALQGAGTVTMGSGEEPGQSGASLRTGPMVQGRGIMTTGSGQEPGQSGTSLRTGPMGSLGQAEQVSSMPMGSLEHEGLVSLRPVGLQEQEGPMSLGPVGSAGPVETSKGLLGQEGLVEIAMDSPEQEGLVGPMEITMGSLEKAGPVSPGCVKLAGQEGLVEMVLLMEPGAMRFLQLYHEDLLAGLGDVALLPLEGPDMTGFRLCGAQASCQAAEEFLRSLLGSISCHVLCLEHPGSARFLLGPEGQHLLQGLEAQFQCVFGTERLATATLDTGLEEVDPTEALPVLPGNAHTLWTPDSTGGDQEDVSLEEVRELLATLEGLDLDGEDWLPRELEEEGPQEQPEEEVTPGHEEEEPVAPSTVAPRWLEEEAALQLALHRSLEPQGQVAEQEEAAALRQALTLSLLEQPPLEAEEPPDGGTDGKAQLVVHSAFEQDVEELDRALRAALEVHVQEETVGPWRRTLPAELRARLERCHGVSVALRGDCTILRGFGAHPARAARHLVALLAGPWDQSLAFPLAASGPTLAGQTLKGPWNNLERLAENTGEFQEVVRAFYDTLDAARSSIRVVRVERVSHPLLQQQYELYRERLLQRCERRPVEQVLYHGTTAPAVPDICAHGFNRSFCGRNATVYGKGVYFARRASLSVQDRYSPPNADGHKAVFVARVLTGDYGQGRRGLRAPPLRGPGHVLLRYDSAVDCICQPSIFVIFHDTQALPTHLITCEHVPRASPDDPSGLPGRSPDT
The series can be described thus: Inhibition of full length recombinant His6-tagged human PARP10 expressed in Escherichia coli BL21(DE3) preincubated for 15 mins followed by biotinylated NAD+ addition by chemiluminescence assay.

Series [2] can be described thus: Thermodynamic solubility of the compound in phosphate buffer at pH 7.4 after 24 hrs by HPLC/UV based shake flask method. The format is physicochemical. The following applies: read-out: Therm_solubility.
A short description of series [3]: Metabolic stability in mouse liver microsomes assessed as compound remaining level at 5 uM after 2 hrs in presence of G-6-P, G-6-PDH, MgCl2 and NADP+ by LC-MS/MS analysis. The format is ADME, microsome. To be noted: read-out: Stability. For orientation: Liver microsomes are vesicles of endoplasmic reticulum, rich in cytochrome P450 enzymes.
Series [4] in a line: Metabolic stability in mouse liver microsomes compound remaining level at 5 uM in absence of co-factors after 2 hrs by LC-MS/MS analysis. Type of series: ADME, microsome. The following applies: read-out: Stability.
Series [5] concerns the target T2, Protein mono-ADP-ribosyltransferase PARP15 (Homo sapiens, UniProt Q460N3).
T2 sequence (Q460N3 whole entry): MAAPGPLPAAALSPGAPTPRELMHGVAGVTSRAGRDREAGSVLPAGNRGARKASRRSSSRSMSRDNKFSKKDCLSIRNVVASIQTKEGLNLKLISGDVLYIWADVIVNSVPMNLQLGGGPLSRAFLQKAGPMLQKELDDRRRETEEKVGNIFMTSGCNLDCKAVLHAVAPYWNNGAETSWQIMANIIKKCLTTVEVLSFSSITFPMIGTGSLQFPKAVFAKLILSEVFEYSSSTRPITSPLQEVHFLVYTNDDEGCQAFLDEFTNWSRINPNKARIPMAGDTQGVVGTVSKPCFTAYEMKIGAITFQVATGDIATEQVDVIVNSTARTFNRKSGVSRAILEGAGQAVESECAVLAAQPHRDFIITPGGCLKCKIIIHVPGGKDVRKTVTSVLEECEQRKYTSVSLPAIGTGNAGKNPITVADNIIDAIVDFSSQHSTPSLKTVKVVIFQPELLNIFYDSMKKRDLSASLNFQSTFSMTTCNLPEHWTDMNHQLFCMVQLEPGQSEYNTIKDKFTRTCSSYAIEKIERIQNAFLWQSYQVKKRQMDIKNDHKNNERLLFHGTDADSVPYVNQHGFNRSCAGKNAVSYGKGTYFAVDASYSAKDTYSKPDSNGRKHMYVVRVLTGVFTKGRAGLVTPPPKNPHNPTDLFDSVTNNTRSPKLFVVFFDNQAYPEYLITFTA
Description: Inhibition of full length recombinant His6-tagged PARP15 catalytic domain (unknown origin) expressed in Escherichia coli BL21(DE3) by fluorescence based assay.

In series [6] the target is Protein mono-ADP-ribosyltransferase PARP14 (Homo sapiens) (UniProt Q460N5). The series can be described thus: Inhibition of full length recombinant His6-tagged human PARP14 WWA/catalytic domain expressed in Escherichia coli BL21(DE3) at 5 uM preincubated for 15 mins followed by biotinylated NAD+ addition by chemiluminescence assay relative to control.

Values after ≈ are worked out from the molar mass of the structure shown.

Chain of Protein mono-ADP-ribosyltransferase PARP14 (Homo sapiens) (Q460N5 whole entry, the tested form may be a part): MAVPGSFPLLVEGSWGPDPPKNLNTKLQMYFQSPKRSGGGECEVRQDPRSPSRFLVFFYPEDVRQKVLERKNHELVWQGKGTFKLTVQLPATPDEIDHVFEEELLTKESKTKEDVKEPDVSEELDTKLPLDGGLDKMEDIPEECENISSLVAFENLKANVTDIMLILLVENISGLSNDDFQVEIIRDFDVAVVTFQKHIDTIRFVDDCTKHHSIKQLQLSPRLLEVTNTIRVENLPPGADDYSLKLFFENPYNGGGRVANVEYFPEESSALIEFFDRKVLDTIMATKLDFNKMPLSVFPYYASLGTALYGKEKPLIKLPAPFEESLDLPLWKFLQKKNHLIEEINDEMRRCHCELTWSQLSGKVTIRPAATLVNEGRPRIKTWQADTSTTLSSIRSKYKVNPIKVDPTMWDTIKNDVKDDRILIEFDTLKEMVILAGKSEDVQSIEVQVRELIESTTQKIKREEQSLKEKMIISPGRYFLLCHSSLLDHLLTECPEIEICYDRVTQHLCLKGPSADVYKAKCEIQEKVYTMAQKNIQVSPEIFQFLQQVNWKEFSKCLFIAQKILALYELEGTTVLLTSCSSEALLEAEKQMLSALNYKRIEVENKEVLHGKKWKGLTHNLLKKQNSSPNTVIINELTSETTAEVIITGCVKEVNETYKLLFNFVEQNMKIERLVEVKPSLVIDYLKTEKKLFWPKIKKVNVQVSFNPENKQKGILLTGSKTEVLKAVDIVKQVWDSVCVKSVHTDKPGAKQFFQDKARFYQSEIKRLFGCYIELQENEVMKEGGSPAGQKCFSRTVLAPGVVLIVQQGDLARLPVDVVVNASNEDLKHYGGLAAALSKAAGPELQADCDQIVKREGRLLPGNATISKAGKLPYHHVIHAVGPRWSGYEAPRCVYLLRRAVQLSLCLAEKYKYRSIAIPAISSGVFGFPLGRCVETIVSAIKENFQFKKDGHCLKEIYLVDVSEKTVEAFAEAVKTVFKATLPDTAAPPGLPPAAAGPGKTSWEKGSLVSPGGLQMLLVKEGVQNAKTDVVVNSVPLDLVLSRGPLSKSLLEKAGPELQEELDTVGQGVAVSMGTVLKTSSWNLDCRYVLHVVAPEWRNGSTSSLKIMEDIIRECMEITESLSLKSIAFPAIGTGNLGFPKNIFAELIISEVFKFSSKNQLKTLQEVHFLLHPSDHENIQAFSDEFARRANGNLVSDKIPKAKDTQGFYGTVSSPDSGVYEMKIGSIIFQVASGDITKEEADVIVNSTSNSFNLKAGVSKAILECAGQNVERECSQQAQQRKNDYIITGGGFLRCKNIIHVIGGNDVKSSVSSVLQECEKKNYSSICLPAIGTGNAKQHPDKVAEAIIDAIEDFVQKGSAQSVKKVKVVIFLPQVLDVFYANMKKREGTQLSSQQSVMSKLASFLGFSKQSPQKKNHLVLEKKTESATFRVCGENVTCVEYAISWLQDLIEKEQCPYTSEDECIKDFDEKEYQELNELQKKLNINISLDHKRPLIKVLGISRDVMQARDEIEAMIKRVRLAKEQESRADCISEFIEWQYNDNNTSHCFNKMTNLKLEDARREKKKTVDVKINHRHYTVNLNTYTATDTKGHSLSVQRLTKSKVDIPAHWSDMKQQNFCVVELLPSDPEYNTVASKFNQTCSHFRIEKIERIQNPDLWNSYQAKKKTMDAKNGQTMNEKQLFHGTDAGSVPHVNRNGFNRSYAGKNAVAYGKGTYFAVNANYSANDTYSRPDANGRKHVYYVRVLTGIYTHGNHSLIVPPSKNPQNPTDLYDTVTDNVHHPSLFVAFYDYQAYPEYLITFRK

The IC50 is the concentration that gives 50% inhibition. In the case of `NC(=O)c1ccc(Oc2cccc(C(N)=O)c2)cc1`, the IC50 in series [1] stood at 510 nM.

In the case of `NC(=O)c1ccc(Oc2ccc(C(=O)N3CCC(c4cccc(F)c4)CC3)cc2)cc1`, the IC50 in series [1] amounted to 1220 nM. With `NC(=O)c1ccc(Oc2cccc(C(=O)N3CCN(c4ccc(F)cc4)CC3)c2)cc1`, the solubility thermodynamic at 24 h in series [2] stood at 60 µM (≈ 25.2 µg/mL). Further, the remaining at 2 h, 5 µM in series [3] turned out to be 39%; in series [4] it was 88.1%. The like results for `NC(=O)c1ccc(Oc2cccc(C(=O)N3CCC(c4ccc(F)cc4)CC3)c2)cc1` were, in that order, 42 µM (≈ 17.6 µg/mL), 16.4% and 91.8%. As for `NC(=O)c1ccc(Oc2cccc(C(=O)N3CCC(O)(c4ccccc4)CC3)c2)cc1`, in series [1], the IC50 worked out at 1500 nM. In the case of `NC(=O)c1ccc(Oc2cccc(C(=O)N3CCC(O)(c4ccc(F)cc4)CC3)c2)cc1`, in series [2], the solubility thermodynamic at 24 h was determined as 242 µM (≈ 105 µg/mL). Besides, the results for the remaining at 2 h, 5 µM in series [3] and in series [4] were 45.3% and 100%, respectively. As to `NC(=O)c1ccc(Oc2ccc(C(=O)N3CCC(c4ccc(F)cc4)CC3)cc2)cc1`, the IC50 in series [1] is 1650 nM.

On to `NC(=O)c1ccc(Oc2ccc(C(N)=O)cc2)cc1`, for which, in series [5], the IC50 is 4170 nM. On to `NC(=O)c1ccc(Oc2cccc(C(=O)N3CCC(c4ccccc4F)CC3)c2)cc1`, for which, in series [1], the IC50 is 470 nM. Usually inhibition stands for the drop in the measured response relative to a control, in per cent. With `CCOC(=O)C1CCN(C(=O)c2cccc(Oc3ccc(C(N)=O)cc3)c2)CC1`, in series [6], the inhibition is 51%. In addition, the IC50 in series [1] was determined as 1060 nM.
